The subject of data set [1] is HDACs (HeLa cell nuclear extracts). Put plainly: HDAC enzymatic activity, Biomol Color de Lys system. Conditions: 1 hour, 25° C. The class given is biochemical. Put shortly: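 HeLa nuclear extract incubated with serially diluted compound and […] artificial substrate in 50 mM Tris/Cl pH 8.0, 137 mM NaCl, 2.7 mM KCl, 1 mM MgCl2. Run 1 h at 25 °C, stopped with developer. Fluorescence read (ex 350-380, em 440-460 nm); IC50 from sigmoidal dose-response fit.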

In another data set the test system is CaPan2. Put plainly: Cell proliferation assay (CellTiter-Glo). In kind it is cell-based. Conditions: Homo sapiens, Capan-2; Pancreas; 72 hours, 0.5% fetal bovine serum; read-out: antiproliferative activity IC50, CaPan2. The procedure:
(§1) Cell Proliferation Assay:
(§2) Cancer cell lines were plated at 5,000 to 10,000 per well in 96-well flat bottomed plates with various concentration of compounds. The cells were incubated with compounds for 72 hours in the presence of 0.5% of fetal bovine serum. Growth inhibition was accessed by adenosine triphosphate (ATP) content assay using Promega CellTiter-Glo kit. Promega CellTiter-Glo kit is an ATP monitoring system based on firefly luciferase. Briefly, 16 μl of mammalian cell lysis and substrate solution was added to 84 μl of culture medium per well to lyse the cells and stabilize the ATP. The mixture was shaken and incubated for 30 minutes and subsequently the luminescence was measured.
A general note: ATP-based viability assays read luminescence as a measure of living cells.

The next data set concerns MDA-MB-231. Kind of data set: Cell proliferation assay (CellTiter-Glo). The class given is cell-based. The note with it: Homo sapiens, Breast, 72 hours, 0.5% fetal bovine serum, read-out: antiproliferative activity IC50, MDA-MB-231. How it is done: as §1, §2
In a further data set the test system is MiaPaca1. Kind of data set: Cell proliferation assay (CellTiter-Glo). In kind it is cell-based. Conditions: Pancreas; 72 hours, 0.5% fetal bovine serum; read-out: antiproliferative activity IC50, MiaPaca1. The procedure:
as §1, §2

For another data set, the system named is WiDr. Put plainly: Cell proliferation assay (CellTiter-Glo). Conditions: Homo sapiens, Colon, 72 hours, 0.5% fetal bovine serum, read-out: antiproliferative activity IC50, WiDr. In kind it is cell-based. How it is done: as §1, §2
The subject of a further data set is CFPAC-1. Put plainly: Cell proliferation assay (CellTiter-Glo). In kind it is cell-based. Conditions: Homo sapiens, Pancreas, 72 hours, 0.5% fetal bovine serum, read-out: antiproliferative activity IC50, CFPAC-1. How it is done:
as §1, §2

For the next data set, the system named is Calu6. Kind of data set: Cell proliferation assay (CellTiter-Glo). In kind it is cell-based. The note with it: Homo sapiens, Calu-6; NSCLC; 72 hours, 0.5% fetal bovine serum; read-out: antiproliferative activity IC50, Calu6. The procedure: as §1, §2
The test system of a further data set is SW1990. Kind of data set: Cell proliferation assay (CellTiter-Glo). The class given is cell-based. Conditions: Homo sapiens, Pancreas, 72 hours, 0.5% fetal bovine serum, read-out: antiproliferative activity IC50, SW1990. How it is done: as §1, §2
For the next data set, the system named is PANC-1. Kind of data set: Cell proliferation assay (CellTiter-Glo). In kind it is cell-based. The note with it: Homo sapiens, Pancreas, 72 hours, 0.5% fetal bovine serum, read-out: antiproliferative activity IC50, PANC-1. The procedure: as §1, §2
Another data set concerns the target T1, PI3Kα (p110α/p85α) (Homo sapiens, UniProt P42336).
T1 construct: GST (N); made in house; host or cells: Baculovirus-infected Sf9 cells
Put plainly: PI3Kα ADP-Glo assay. The class given is biochemical. The note with it: 20 μM PIP2, 10 μM ATP, 30 minutes. In short, it runs like this: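 Recombinant full-length human GST-p110α/His-p85α, co-expressed in Sf9 cells, was incubated 30 min at room temperature with 20 μM PIP2 and 10 μM ATP. The buffer was 50 mM HEPES pH 7.4, 150 mM NaCl, 5 mM MgCl2, 1 mM DTT, 3 µM orthovanadate and 0.5% DMSO. ADP formed was detected by ADP-Glo luminescence.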

In data set [2] the target is T2, mTor serine/threonine protein kinase (Homo sapiens, UniProt P42345).
T2 construct: FLAG; made in house; host or cells: Baculovirus expression system in Sf21 cells
Kind of data set: mTor kinase radioisotope assay. In kind it is biochemical. The note with it: 70 uM ATP, 40 minutes; read-out: m-TOR IC50. The procedure:
(F) an In Vitro Assay which-Determines the Ability of a Test Compound to Inhibit mTor Serine/Threonine Protein Kinase.
The ability of compounds to inhibit mTor activity was assayed using standard radioisotope assay for kinase. Briefly, FLAG-tagged, recombinant full-length human mTor (GenBank accession No. NM_004958) was expressed using baculovirus expression system in Sf21 cells and purified using antibody affinity column. Purified enzyme was incubated with c-terminal fragment of p70S6K as it's substrate in the presence of ATP. p33 ATP tracers were included in the assay to monitor the enzyme activity. Final assay condition was with 50 mM HEPES pH 7.5, 1 mM EGTA, 0.01% Tween 20, 2 mg/ml substrate, 3 mM Manganese Chloride and 70 uM of ATP and was carried out at room temperature for 40 minutes. The reaction was then stopped by the addition of 3% phosphoric acid solution. 10 ul of the reaction was spotted onto a P30 filtermat and washed three times for 5 minutes in 75 mM phosphoric acid and once in methanol prior to drying and scintillation counting. Different concentrations of compounds were added to reaction to assess the activity of compounds to inhibit mTor kinase. IC50 was calculated using Prism software with sigmoidal dose-response curve fitting.

A further data set concerns HCT116. Put plainly: Cell proliferation assay (CellTiter-Glo). The class given is cell-based. The note with it: Homo sapiens, HCT-116; Colon; 72 hours, 0.5% fetal bovine serum; read-out: antiproliferative activity IC50, HCT116. The procedure:
as §1, §2

One may read the IC50 as the concentration that gives 50% inhibition. A word on the melting point: it is the temperature of the solid-liquid transition.

T1 sequence (P42336 whole entry): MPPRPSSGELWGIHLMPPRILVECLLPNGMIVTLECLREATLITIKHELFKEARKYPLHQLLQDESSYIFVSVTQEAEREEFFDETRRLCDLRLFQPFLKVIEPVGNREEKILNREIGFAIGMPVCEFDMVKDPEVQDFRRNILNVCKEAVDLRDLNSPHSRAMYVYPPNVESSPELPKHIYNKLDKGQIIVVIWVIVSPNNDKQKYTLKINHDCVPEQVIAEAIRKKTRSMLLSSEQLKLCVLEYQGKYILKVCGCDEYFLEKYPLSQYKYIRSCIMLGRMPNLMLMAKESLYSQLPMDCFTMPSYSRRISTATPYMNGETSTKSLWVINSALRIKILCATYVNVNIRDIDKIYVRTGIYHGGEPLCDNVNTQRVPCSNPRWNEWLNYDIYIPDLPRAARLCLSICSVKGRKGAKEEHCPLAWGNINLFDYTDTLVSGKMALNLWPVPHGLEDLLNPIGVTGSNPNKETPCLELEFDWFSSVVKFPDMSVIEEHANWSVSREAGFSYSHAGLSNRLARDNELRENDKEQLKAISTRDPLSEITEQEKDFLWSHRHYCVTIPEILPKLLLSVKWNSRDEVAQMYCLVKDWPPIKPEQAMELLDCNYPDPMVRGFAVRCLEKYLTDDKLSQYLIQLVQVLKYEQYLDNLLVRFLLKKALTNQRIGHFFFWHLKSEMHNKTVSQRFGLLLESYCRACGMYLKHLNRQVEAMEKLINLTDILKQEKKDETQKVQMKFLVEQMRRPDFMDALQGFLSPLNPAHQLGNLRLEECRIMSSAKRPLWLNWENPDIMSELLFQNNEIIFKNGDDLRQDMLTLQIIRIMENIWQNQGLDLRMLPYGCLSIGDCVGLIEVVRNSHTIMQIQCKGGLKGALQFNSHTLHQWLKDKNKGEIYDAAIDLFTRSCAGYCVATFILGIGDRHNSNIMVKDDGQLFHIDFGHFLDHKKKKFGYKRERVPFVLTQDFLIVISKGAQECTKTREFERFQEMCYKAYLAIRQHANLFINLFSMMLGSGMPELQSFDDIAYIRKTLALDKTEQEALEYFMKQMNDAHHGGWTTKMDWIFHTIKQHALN
T1 sequence (P27986 whole entry partner): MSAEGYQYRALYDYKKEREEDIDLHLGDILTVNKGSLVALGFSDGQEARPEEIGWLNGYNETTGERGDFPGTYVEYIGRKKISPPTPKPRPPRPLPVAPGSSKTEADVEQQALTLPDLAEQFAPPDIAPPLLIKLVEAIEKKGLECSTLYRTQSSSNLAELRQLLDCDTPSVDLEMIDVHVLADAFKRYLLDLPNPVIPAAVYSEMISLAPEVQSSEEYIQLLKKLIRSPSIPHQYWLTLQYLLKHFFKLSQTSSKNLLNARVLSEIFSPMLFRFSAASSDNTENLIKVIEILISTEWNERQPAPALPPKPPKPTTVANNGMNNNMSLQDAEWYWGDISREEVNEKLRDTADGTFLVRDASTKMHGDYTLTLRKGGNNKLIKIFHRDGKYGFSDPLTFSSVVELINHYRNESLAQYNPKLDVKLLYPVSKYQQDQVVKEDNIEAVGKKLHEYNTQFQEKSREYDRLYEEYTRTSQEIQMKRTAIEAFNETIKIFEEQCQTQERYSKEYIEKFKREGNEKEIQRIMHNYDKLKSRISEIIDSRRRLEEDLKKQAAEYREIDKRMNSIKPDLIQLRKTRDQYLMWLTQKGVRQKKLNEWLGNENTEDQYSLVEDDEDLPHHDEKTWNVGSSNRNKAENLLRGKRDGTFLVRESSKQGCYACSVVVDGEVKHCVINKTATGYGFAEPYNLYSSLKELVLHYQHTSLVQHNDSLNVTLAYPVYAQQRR

Regarding `CC(=O)Nc1ccc(-c2nc(N3CCOCC3)c3sc(CN(C)c4ncc(C(=O)NO)cn4)cc3n2)cn1` [Compound 112, 2-(((2-(6-acetamidopyridin-3-yl)-4-morpholinothieno[3,2-d]pyrimidin-6-yl)methyl)(methyl)amino)-N-hydroxypyrimidine-5-carboxamide], the melting point lay in the range of 197 to 201 °C. In [1], this compound registered an IC50 of less than 100 nM. The IC50 in the data set on CaPan2 was in the range of 100 to 1000 nM. In the data set with MDA-MB-231, the IC50 lay within 10 to 100 nM. In the data set with MiaPaca1, the IC50 lay in the range of 10 to 100 nM. The IC50 in the data set with WiDr was 100 to 1000 nM. In addition, in the data set on CFPAC-1, the IC50 was 100 to 1000 nM. Besides, the IC50 in the data set with Calu6 lay within 10 to 100 nM. Further, the IC50 with SW1990 lay within 10 to 100 nM. Further, in the data set with PANC-1, the IC50 lay in the range of 10 to 100 nM. The compound also gave a 50% inhibitory concentration (IC50) at PI3Kα (p110α/p85α) of less than 100 nM.

The compound `CCc1ncc(-c2nc(N3CCOCC3)c3sc(CN(C)c4ncc(C(=O)NO)cn4)cc3n2)cn1` [Compound 121, 2-(((2-(2-ethylpyrimidin-5-yl)-4-morpholinothieno[3,2-d]pyrimidin-6-yl)methyl)(methyl)amino)-N-hydroxypyrimidine-5-carboxamide] showed a melting point of 153 to 156 °C. The same compound returned an IC50 in data set [1] of less than 100 nM. Moreover, on PI3Kα (p110α/p85α), the IC50 is less than 100 nM. Further, the IC50 in data set [2] lay within 1000 to 10000 nM.

In turn, `Cc1nc(N)ncc1-c1nc(N2CCOCC2)c2sc(CN(C)c3ncc(C(=O)NO)cn3)cc2n1` [Compound 125, 2-(((2-(2-amino-4-methylpyrimidin-5-yl)-4-morpholinothieno[3,2-d]pyrimidin-6-yl)methyl)(methyl)amino)-N-hydroxypyrimidine-5-carboxamide] showed a melting point of 195 to 198 °C. Further, in data set [1], the concentration for half-maximal inhibition (IC50) was less than 100 nM. For the same compound, the IC50 in the data set with HCT116 was 10 to 100 nM. For the same compound, the IC50 against PI3Kα (p110α/p85α) is less than 100 nM.

`CN(Cc1cc2nc(-c3cccc(O)c3)nc(N3CCOCC3)c2s1)c1ncc(C(=O)NO)cn1` [Compound 132, N-hydroxy-2-(((2-(3-hydroxyphenyl)-4-morpholinothieno[3,2-d]pyrimidin-6-yl)methyl)(methyl)amino)pyrimidine-5-carboxamide] had a melting point of 175 to 181 °C. The IC50 in data set [1] is less than 100 nM. In addition, the concentration for half-maximal inhibition (IC50) in the data set with MDA-MB-231 fell in the range of 10 to 100 nM. In the data set on WiDr, the IC50 is 100 to 1000 nM. Besides, the IC50 in the data set with Calu6 was 10 to 100 nM. In addition, the IC50 against PI3Kα (p110α/p85α) was less than 100 nM. In data set [2], the IC50 was less than 100 nM.

`CC(=O)Nc1ccc(-c2nc(N3CCOCC3)c3sc(CN(C)c4ncc(C(=O)NO)cn4)cc3n2)cc1` [Compound 157, 2-(((2-(4-acetamidophenyl)-4-morpholinothieno[3,2-d]pyrimidin-6-yl)methyl)(methyl)amino)-N-hydroxypyrimidine-5-carboxamide]: the melting point lay within 228 to 230 °C. The compound also returned an IC50 in data set [1] of less than 100 nM. Moreover, the IC50 with WiDr lay within 100 to 1000 nM. Further, in the data set with Calu6, the 50% inhibitory concentration (IC50) is 10 to 100 nM. The compound also displayed an IC50 at PI3Kα (p110α/p85α) of less than 100 nM. Further, the IC50 in [2] is less than 100 nM.

The compound `Cc1nc2ccc(-c3nc(N4CCOCC4)c4sc(CN(C)c5ncc(C(=O)NO)cn5)cc4n3)cc2[nH]1` [Compound 199, N-hydroxy-2-(methyl((2-(2-methyl-3H-benzo[d]imidazol-5-yl)-4-morpholinothieno[3,2-d]pyrimidin-6-yl)methyl)amino)pyrimidine-5-carboxamide] showed a melting point of 230 to 233 °C. In [1], this compound gave an IC50 of less than 100 nM. Moreover, the half-maximal inhibitory concentration (IC50) with CaPan2 was in the range of 1000 to 10000 nM. In addition, in the data set on MDA-MB-231, the IC50 fell in the range of 10 to 100 nM. Further, the 50% inhibitory concentration (IC50) in the data set with MiaPaca1 is 10 to 100 nM. In addition, the IC50 in the data set on WiDr was in the range of 10 to 100 nM. In the data set with Calu6, the 50% inhibitory concentration (IC50) fell in the range of 100 to 1000 nM. For the same compound, in the data set with SW1990, the IC50 is 10 to 100 nM. Also, the IC50 in the data set with PANC-1 is 100 to 1000 nM. The IC50 against PI3Kα (p110α/p85α) was less than 100 nM.

`CN(Cc1cc2nc(-c3cnn(C)c3)nc(N3CCOCC3)c2s1)c1ncc(C(=O)NO)cn1` [Compound 246, N-Hydroxy-2-(methyl((2-(1-methyl-1H-pyrazol-4-yl)-4-morpholinothieno[3,2-d]pyrimidin-6-yl)methyl)amino)pyrimidine-5-carboxamide] registered a melting point of 164 to 169 °C. The same compound showed an IC50 in data set [1] of less than 100 nM. The compound also yielded an IC50 against PI3Kα (p110α/p85α) of 100 to 1000 nM. In addition, in data set [2], the IC50 is more than 10000 nM.

With `CN(Cc1cc2nc(-c3ccc(OCCO)nc3)nc(N3CCOCC3)c2s1)c1ncc(C(=O)NO)cn1` [Compound 256, N-Hydroxy-2-(((2-(6-(2-hydroxyethoxy)pyridin-3-yl)-4-morpholinothieno[3,2-d]pyrimidin-6-yl)methyl)(methyl)amino)pyrimidine-5-carboxamide], the melting point was 143 to 145 °C. This compound displayed an IC50 in [1] of less than 100 nM. The IC50 at PI3Kα (p110α/p85α) was less than 100 nM. In addition, the IC50 in data set [2] was more than 10000 nM.

In the case of `COc1ncc(-c2nc(N3CCOCC3)c3sc(CN(C)c4ncc(C(=O)NO)cn4)cc3n2)cn1` [Compound 261, N-Hydroxy-2-(((2-(2-methoxypyrimidin-5-yl)-4-morpholinothieno[3,2-d]pyrimidin-6-yl)methyl)(methyl)amino)pyrimidine-5-carboxamide], the melting point lay within 215 to 220 °C. In [1], this compound registered an IC50 of less than 100 nM. In the data set with MDA-MB-231, the IC50 fell in the range of 10 to 100 nM. Also, the 50% inhibitory concentration (IC50) on PI3Kα (p110α/p85α) was less than 100 nM.

`CN(Cc1cc2nc(-c3ccc(N)c(CO)c3)nc(N3CCOCC3)c2s1)c1ncc(C(=O)NO)cn1` [Compound 285, 2-(((2-(4-Amino-3-(hydroxymethyl)phenyl)-4-morpholinothieno[3,2-d]pyrimidin-6-yl)methyl)(methyl)amino)-N-hydroxypyrimidine-5-carboxamide] returned a melting point of 195 to 200 °C. The compound also came in with an IC50 in data set [1] of less than 100 nM. Further, on PI3Kα (p110α/p85α), the IC50 was less than 100 nM. Besides, the IC50 in data set [2] is less than 100 nM.

Compound `C[C@@H](O)c1cccc(-c2nc(N3CCOCC3)c3sc(CN(C)c4ncc(C(=O)NO)cn4)cc3n2)c1` [Compound 297, (R)—N-Hydroxy-2-(((2-(3-(1-hydroxyethyl)phenyl)-4-morpholinothieno[3,2-d]pyrimidin-6-yl)methyl)(methyl)amino)pyrimidine-5-carboxamide] displayed a melting point of 169 to 173 °C. The IC50 in data set [1] is less than 100 nM. Moreover, on PI3Kα (p110α/p85α), the IC50 is 100 to 1000 nM. Further, the IC50 in data set [2] was 100 to 1000 nM.

In turn, `CN(Cc1cc2nc(-c3ccc4[nH]c(C(F)(F)F)nc4c3)nc(N3CCOCC3)c2s1)c1ncc(C(=O)NO)cn1` [Compound 318] displayed a melting point of more than 300 °C. In addition, the half-maximal inhibitory concentration (IC50) in data set [1] is less than 100 nM. Moreover, on PI3Kα (p110α/p85α), the IC50 was less than 100 nM. In addition, in data set [2], the IC50 was 100 to 1000 nM.

Source of the values: patent US20130102595A1 (Curis, Inc., priority 2011, published 2013).
